Measurements reported in patent US11578100B2, “Cyclic peptides, cyclic peptide conjugates and methods of use thereof” (Florida Atlantic University Board of Trustees, priority 2018, dated 2023).
Where a SMILES comes first, the peptide text is derived from it. Bridges are numbered along the chain shown (N, C = ends). Where no end group is shown, it is not given here. [ ]: non-standard residue; d: D form. Trp(5-OH) = N[C@@H](Cc1c[nH]c2ccc(O)cc12)C(=O)O; Tic = O=C(O)[C@@H]1Cc2ccccc2CN1

How the values were obtained:
mice [1] = assay: conditioned place preference / aversion; details: mouse, in vivo
[2] = 30 min after intranasal delivery
Text: Anatomical and physiological studies identified the midbrain periaqueductal gray (PAG) and its descending projections to the rostral ventromedial medulla (RVM) and spinal cord dorsal horn, as a primary anatomical pathway mediating opioid-based analgesia.

δ opioid receptor (DOR) = molecular target: T1, δ opioid receptor (DOR) (Homo sapiens, UniProt P41143); assay: opioid receptor protein binding radioassay, DOR
T1 construct: expressed in transfected cells; host or cells: CHO cells

μ opioid receptor (MOR) = molecular target: T2, μ opioid receptor (MOR) (Homo sapiens, UniProt P35372); assay: opioid receptor protein binding radioassay, MOR
T2 construct: expressed in transfected cells; host or cells: CHO cells

mice [3] = assay: observation of adverse effects after i.n. administration
[4] = stability in 100% mouse brain homogenate; assay type: in vitro ADME; details: 37° C., RP-HPLC and MALDI TOF MS
Protocol: Peptides Stability Under Physiologically Relevant Conditions and Mode of Action Stability of DADLE-OL in 100% human cerebrospinal fluid and 100% mouse brain homogenate at 37° C. was determined. The disappearance of the intact peptides and formation of proteolytic products was monitored by RP-HPLC and MALDI TOF mass spectrometry. […] Once diffused into the brain, DOR active sequence is released due to proteolytic hydrolysis of DADLE-OL. Fragment 1 was synthesized, and activities of the parent DADLE-OL and fragment 1 were tested in the cAMP inhibition assay (cAMP AlphaScreen™ Assay, Perkin Elmer).

κ opioid receptor (KOR) = molecular target: T3, κ opioid receptor (KOR) (Homo sapiens, UniProt P41145); assay: opioid receptor protein binding radioassay, KOR
T3 construct: expressed in transfected cells; host or cells: CHO cells

[5] = peptide level in mouse brain after i.n. or i.p. administration (LC-MS/MS)
mice [6] = assay: rotarod test of motor coordination; details: peptides i.n.; U50,488 i.p.
mice [7] = assay: 55° C. warm water tail-withdrawal test; assay type: in vivo, mouse; details: i.n. administration
DOR = molecular target: T4, DOR (Mus musculus, UniProt P32300); assay: antagonism of i.c.v. SNC-80 after i.n. pretreatment; assay type: in vivo; details: SNC-80 i.c.v.
T4 construct: from tissue; host or cells: living mouse (CNS); SNC-80 i.c.v. after i.n. TIPP-OL
T4 sequence (P32300 whole entry): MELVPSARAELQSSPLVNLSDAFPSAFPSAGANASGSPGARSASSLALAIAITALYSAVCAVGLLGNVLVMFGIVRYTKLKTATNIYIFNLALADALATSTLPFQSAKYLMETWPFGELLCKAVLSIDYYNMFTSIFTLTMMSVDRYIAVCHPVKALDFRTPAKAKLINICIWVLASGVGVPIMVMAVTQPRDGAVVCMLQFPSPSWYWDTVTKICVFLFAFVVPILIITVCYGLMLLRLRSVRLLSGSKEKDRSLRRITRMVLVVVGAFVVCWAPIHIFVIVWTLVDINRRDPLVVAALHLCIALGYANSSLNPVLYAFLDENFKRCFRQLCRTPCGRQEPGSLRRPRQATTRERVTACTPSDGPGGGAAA

T1 sequence (P41143 whole entry): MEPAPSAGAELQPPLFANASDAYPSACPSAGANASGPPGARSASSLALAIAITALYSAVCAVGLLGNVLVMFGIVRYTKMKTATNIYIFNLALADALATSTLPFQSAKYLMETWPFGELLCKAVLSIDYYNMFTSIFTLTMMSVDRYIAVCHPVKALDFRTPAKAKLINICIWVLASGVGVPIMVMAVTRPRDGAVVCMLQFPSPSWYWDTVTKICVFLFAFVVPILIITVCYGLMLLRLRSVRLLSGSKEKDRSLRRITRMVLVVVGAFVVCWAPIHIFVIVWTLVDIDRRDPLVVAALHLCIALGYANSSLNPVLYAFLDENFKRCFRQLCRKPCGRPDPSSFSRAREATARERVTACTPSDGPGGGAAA
T2 sequence (P35372 whole entry): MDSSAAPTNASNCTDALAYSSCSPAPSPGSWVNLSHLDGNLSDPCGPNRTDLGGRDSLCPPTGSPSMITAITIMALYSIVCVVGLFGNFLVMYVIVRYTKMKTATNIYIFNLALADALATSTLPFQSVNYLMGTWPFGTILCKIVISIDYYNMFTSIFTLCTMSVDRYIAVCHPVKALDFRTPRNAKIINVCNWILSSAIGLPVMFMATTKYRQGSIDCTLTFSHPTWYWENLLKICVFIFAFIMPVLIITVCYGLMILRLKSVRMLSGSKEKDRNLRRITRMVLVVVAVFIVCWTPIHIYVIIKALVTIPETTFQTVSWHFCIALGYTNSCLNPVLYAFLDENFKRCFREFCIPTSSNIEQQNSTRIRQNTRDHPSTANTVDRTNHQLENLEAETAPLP
T3 sequence (P41145 whole entry): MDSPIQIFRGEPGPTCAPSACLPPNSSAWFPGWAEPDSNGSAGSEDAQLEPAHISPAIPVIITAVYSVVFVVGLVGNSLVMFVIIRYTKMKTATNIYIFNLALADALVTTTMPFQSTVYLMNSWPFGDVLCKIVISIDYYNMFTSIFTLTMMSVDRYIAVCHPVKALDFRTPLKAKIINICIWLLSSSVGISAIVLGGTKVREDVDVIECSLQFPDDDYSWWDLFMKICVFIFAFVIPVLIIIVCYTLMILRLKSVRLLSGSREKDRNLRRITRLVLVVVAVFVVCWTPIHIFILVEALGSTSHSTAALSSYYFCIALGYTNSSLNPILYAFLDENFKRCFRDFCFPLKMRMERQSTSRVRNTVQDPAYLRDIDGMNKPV

**Q.** Which results are given for `CC(C)C[C@@H]1NC(=O)[C@H](CCCCN)NC(=O)[C@@H]2CCCN2C(=O)[C@H](Cc2c[nH]c3ccccc23)NC(=O)[C@H](Cc2ccccc2)NC(=O)CNC(=O)[C@H](CCCNC(=N)N)NC(=O)[C@H](Cc2ccccc2)NC(=O)[C@@H](NC(=O)[C@H](CCCCN)NC(=O)[C@@H]2CCCN2C(=O)[C@H](CO)NC(=O)[C@H](C)NC(=O)[C@@H](N)Cc2c[nH]c3ccc(O)cc23)CSSC[C@@H](C(=O)N[C@H](C(N)=O)[C@@H](C)O)NC(=O)[C@H](C)NC1=O` [OLKOR-L1-5HTrp, 5-HTrp^1-A^2S^3P^4K^5-cyclo[C^6F^7R^8G^9F^10W^11P^12K^13L^14A^15C^16]T^17] (H-[Trp(5-OH)]ASPKCFRGFWPKLACT-NH2; disulfide 6-16)?
**A.** conditioned place aversion (CPA) (mice [1]): produced CPA; conditioned place preference (reward) (mice [1]): do not produce reward; 5-HTrp accumulation in the midbrain [2]: significant increase in 5-HTrp accumulation in the midbrain

**Q.** Which results are given for `CC(C)C[C@@H]1NC(=O)[C@H](C(C)C)NC(=O)CNC(=O)[C@H](CC(N)=O)NC(=O)[C@@H]2CCCN2C(=O)[C@H](Cc2ccc(O)cc2)NC(=O)[C@H](CCCNC(=N)N)NC(=O)[C@H](Cc2ccccc2)NC(=O)[C@@H](NC(=O)[C@H](CCCCN)NC(=O)[C@@H]2CCCN2C(=O)[C@H](CO)NC(=O)[C@H](C)NC(=O)[C@@H](N)Cc2ccc(O)cc2)CSSC[C@@H](C(=O)N[C@H](C(N)=O)[C@@H](C)O)NC(=O)[C@H](C)NC1=O` [OL, Y^1A^2S^3P^4K^5-cyclo[C^6F^7R^8Y^9P^10N^11G^12V^13L^14A^15C^16]T^17, reference compound] (H-YASPKCFRYPNGVLACT-NH2; disulfide 6-16; N-terminus and C-terminus assumed)?
**A.** Kd opioid receptor δ (δ opioid receptor (DOR)): n.o.; Kd opioid receptor μ (μ opioid receptor (MOR)): n.o.; adverse effects (mice [3]): no adverse effects were observed; stability in 100% mouse brain homogenate [4]: proteolytic cleavage of the N-terminal Tyr^1 and Ala^2; Kd opioid receptor K (κ opioid receptor (KOR)): n.o.; detection in mouse brain after i.n. administration ([5]; 30 minutes after i.n. (30 μg, 6 μL/nostril)): can be detected in the mouse brain; time to elimination from the brain ([5]; after i.n. administration): about 240 minutes

**Q.** Which “motor coordination in rotarod test” value (mice [6]) does the source give for `CC(C)C[C@@H]1NC(=O)[C@H](CCCCN)NC(=O)[C@@H]2CCCN2C(=O)[C@H](Cc2c[nH]c3ccccc23)NC(=O)[C@H](Cc2ccccc2)NC(=O)CNC(=O)[C@H](CCCNC(=N)N)NC(=O)[C@H](Cc2ccccc2)NC(=O)[C@@H](NC(=O)[C@H](CCCCN)NC(=O)[C@@H]2CCCN2C(=O)[C@H](CO)NC(=O)[C@H](C)NC(=O)[C@@H](N)Cc2ccc(O)cc2)CSSC[C@@H](C(=O)N[C@H](C(N)=O)[C@@H](C)O)NC(=O)[C@H](C)NC1=O` [OLKOR-L1, Y^1A^2S^3P^4K^5-cyclo[C^6F^7R^8G^9F^10W^11P^12K^13L^14A^15C^16]T^17] (H-YASPKCFRGFWPKLACT-NH2; disulfide 6-16) here?
**A.** no impairment in motor coordination in mice was observed

**Q.** And the adverse effects (mice [3])?
**A.** no other adverse effects were observed

**Q.** Which “antinociception in tail-withdrawal test” value (mice [7]) does the source give for `CC(C)C[C@@H](NC(=O)[C@H](Cc1ccccc1)NC(=O)CNC(=O)[C@@H](C)NC(=O)[C@@H](N)Cc1ccc(O)cc1)C(=O)O` [DADLE, [D-Ala^2, D-Leu^5] enkephalin, reference compound] here?
**A.** did not themselves produce antinociception

**Q.** Which results are given for `CC(C)C[C@@H]1NC(=O)[C@H](CC(N)=O)NC(=O)[C@H](C(C)C)NC(=O)[C@@H]2CCCN2C(=O)[C@H](Cc2ccccc2)NC(=O)[C@H](Cc2c[nH]cn2)NC(=O)[C@H](CCCNC(=N)N)NC(=O)[C@H](Cc2ccccc2)NC(=O)[C@@H](NC(=O)[C@H](CCCCN)NC(=O)[C@@H]2CCCN2C(=O)[C@H](CO)NC(=O)[C@H](C)NC(=O)[C@@H](N)Cc2ccc(O)cc2)CSSC[C@@H](C(=O)N[C@H](C(N)=O)[C@@H](C)O)NC(=O)[C@H](C)NC1=O` [OLMOR-L1, Y^1A^2S^3P^4K^5-cyclo[C^6F^7R^8H^9F^10P^11V^12N^13L^14A^15C^16]T^17] (H-YASPKCFRHFPVNLACT-NH2; disulfide 6-16)?
**A.** conditioned place aversion (CPA) (mice [1]): did not induce significant conditioned place preference or aversion; conditioned place preference (reward) (mice [1]): did not induce significant conditioned place preference or aversion; motor coordination in rotarod test (mice [6]): did not affect motor coordination and balance

**Q.** For “Y^1P^2W^3F^4K^5-cyclo[C^6F^7R^8Y^9Tic^10F^11F^12V^13L^14A^15C^16]T^17 (YPWFKCFRY[Tic]FFVLACT; disulfide 6-16 (inferred)) [TIPP-EM1-OL]”, which “antinociception in tail-withdrawal test” value (mice [7]) is on record?
**A.** exhibits antinociceptive effects

**Q.** Which “antagonism of the effect of SNC-80” value (DOR) does the source give for “Y^1A^2S^3P^4K^5-cyclo[C^6F^7R^8Y^9Tic^10F^11F^12V^13L^14A^15C^16]T^17 (YASPKCFRY[Tic]FFVLACT; disulfide 6-16 (inferred)) [TIPP-OL]” here?
**A.** fully antagonizes the effect of a potent DOR agonist SNC-80
